From patent US11260100B2, “Compositions targeting the interaction domain between p27Kip1 and Brk and methods of use thereof to inhibit p27 Y phosphorylation and cdk4 activity” (The Research Foundation for the State University of New York, priority 2014, dated 2022) come the findings set out here.

Assay [1] relates to MCF7-ALT cells. Briefly: Long-term proliferation arrest at IC100 (FIG. 15A). Type of assay: cell-based, human. The conditions noted are these: IC100 Palbociclib, doxycycline induced ALT, replenished every two days. How it is done:
FIGS. 15A-15C: ALT and PD treatment increases senescence, a clinical goal. FIG. 15A: MCF7-ALT cells were treated with IC100 concentration of Palbociclib (PD) or doxycycline to induce ALT. Drugs were replenished every two days and proliferation was determined by cell counting as indicated. Proliferation rates were standardized to the rate of proliferation seen in DMSO treated cells (control). PD treated cells were arrested for 10 days, before escape (proliferation) was detected. ALT expressing cells were arrested for 18 days before escape (proliferation) was detected. ALT expressing and PD treated cells were arrested for 30 days, with no escape detected. […] Proliferation was assessed by counting. […] Viability was measured by trypan blue staining and the ALT expressing, PD treated cells that weren't growing were viable. […]
MCF7-ALT cells were treated with a IC100 concentration of Palbociclib (PD) or doxycycline to induce ALT. Drugs were replenished every two days and proliferation was determined by cell counting as indicated. […] PD treated cells were arrested for 10 days, before escape (proliferation) was detected. ALT expressing cells were arrested for 18 days before escape (proliferation) was detected. ALT expressing and PD treated cells were arrested for 30 days, with no escape detected. […] Proliferation was assessed by counting. […]

Assay [2] concerns MCF7 breast cancer cells. Briefly: Proliferation with ALT and Palbociclib at IC50 concentration (FIG. 9). Type of assay: cell-based, human. The conditions noted are these: drugs at IC50 concentration, replaced every two days. The procedure: FIGS. 9A-9B: AltBrk Synergizes with Palbociclib. ALT, Palbociclib, or Brk alone or in combination were added to or expressed in MCF7 breast cancer cells on day 2 post plating. Drugs were added at their IC50 concentration, based on previous results. ALT is expressed from an ALT-MCF7 tetracycline inducible cell line generated in the Blain lab. When tetracycline is added to the cell culture media, ALT is expressed in these cells. Vector: no tetracycline was added, so no ALT induction was detected. (FIG. 9A) Cells were harvested and counted every two days, as a measure of proliferation. Proliferation is plotted as a percentage relative to that seen in the DMSO treated control. Drugs and media were replaced every two days. (FIG. 9B) Viability was measured by trypan blue staining, and plotted relative to viability seen in the DMSO treated control.
Additional experiments were performed assessing activity of Brk in combination with Palbociclib. The data presented in FIGS. 9A and 9B reveal that Palbociclib and Brk inhibit proliferation for 2 days, and then resistance is observed (proliferation increases). Alt maintained arrest for roughly 10 days (50% inhibition of proliferation is detected). […] Alt-Brk/Palbociclib combination leads to a more durable cell cycle arrest. Mono therapy treated cells start to become resistant between day 8-10. […]

Consider `CC(=O)c1c(C)c2cnc(Nc3ccc(N4CCNCC4)cn3)nc2n(C2CCCC2)c1=O` [PD0332991], for which, in assay [1], the “time arrested before escape (proliferation)” value is 10 days. In addition, the “duration of proliferation inhibition / arrest” value in assay [2] turned out to be 2 days.
